# Reference: the supplement of paper PMC4862054
# Key:
# Conditions in all cases: incubation time: 72 h
# [1] = test system: BT-474; experiment: normalised viability (% of control), CellTiter-Blue; higher = more viable cells (100 = DMSO, 0 = benzethonium chloride kill control)
# Method: (§1)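 DSRT, CellTiter-Blue viability, 72 h incubation. Signal is normalised to DMSO and benzethonium chloride controls. Value is the normalised response at dose 1.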
# [2] = test system: BT-549; experiment: as above
# Method: as §1
# [3] = test system: CAL-120; experiment: as above
# Method: as §1
# [4] = test system: CAL-148; experiment: as above
# Method: as §1
# [5] = test system: CAL-51; experiment: as above
# Method: as §1
# [6] = test system: CAL-85-1; experiment: as above
# Method: as §1
# [7] = test system: HCC1143; experiment: as above
# Method: as §1
# [8] = test system: HCC1599; experiment: as above
# Method: as §1
# [9] = test system: HCC1937; experiment: as above
# Method: as §1
# [10] = test system: HDQ-P1; experiment: as above
# Method: as §1
# [11] = test system: Hs578T; experiment: as above
# Method: as §1
# [12] = test system: MDA-MB-231; experiment: as above
# Method: as §1
# [13] = test system: MDA-MB-436; experiment: as above
# Method: as §1
# [14] = test system: MDA-MB-453; experiment: as above
# Method: as §1
# [15] = test system: MFM-223; experiment: as above
# Method: as §1
# [16] = test system: SK-BR-3; experiment: as above
# Method: as §1
# [17] = test system: BT-474; experiment: drug sensitivity score (DSS), CellTiter-Glo (DSS (AUC-based score)); higher = stronger drug effect (viability inhibition or cytotoxicity); extreme values may be limits of the assay
# How it was run: (§2)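 After 72 h of incubation in 384-well plates with compound at 5 concentrations (10-fold steps, 10,000-fold range set per compound), breast cancer cell lines seeded in 20 µl suspension were read first for CellTox Green fluorescence at 485/520 nm. CellTiter-Glo luminescence was measured next, after 10 min at room temperature. Normalisation on each plate used 0.1 % DMSO and a positive kill control, and the drug sensitivity score was computed from the area under the fitted dose-response curve.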
# [18] = test system: BT-549; experiment: as above
# How it was run: as §2
# [19] = test system: HCC1143; experiment: as above
# How it was run: as §2
# [20] = test system: HCC1937; experiment: as above
# How it was run: as §2
# [21] = test system: HDQ-P1; experiment: as above
# How it was run: as §2
# [22] = test system: Hs578T; experiment: as above
# How it was run: as §2
# [23] = test system: MCF-10A; experiment: as above
# How it was run: as §2
# [24] = test system: MDA-MB-436; experiment: as above
# How it was run: as §2
# [25] = test system: MDA-MB-468; experiment: as above
# How it was run: as §2
# [26] = test system: MFM-223; experiment: as above
# How it was run: as §2
# [27] = test system: SK-BR-3; experiment: as above
# How it was run: as §2
smiles,measurement,setting,value
CCN(CC)CCCC(C)Nc1c2ccc(Cl)cc2nc2ccc(OC)cc12 (stereo unspecified) [Mepacrine],normalised viability,[1]; 0.099 nM,74.2%
same,normalised viability,[1]; 1 nM,113%
same,normalised viability,[2]; 0.099 nM,96.1%
same,normalised viability,[2]; 1 nM,86.5%
same,normalised viability,[3]; 0.099 nM,114%
same,normalised viability,[3]; 1 nM,97.7%
same,normalised viability,[4]; 0.099 nM,115%
same,normalised viability,[4]; 1 nM,96.9%
same,normalised viability,[5]; 0.099 nM,90.8%
same,normalised viability,[5]; 1 nM,97.2%
same,normalised viability,[6]; 0.099 nM,101%
same,normalised viability,[6]; 1 nM,94.5%
same,normalised viability,[7]; 0.099 nM,108%
same,normalised viability,[7]; 1 nM,98.1%
same,normalised viability,[8]; 0.099 nM,102%
same,normalised viability,[8]; 1 nM,96.2%
same,normalised viability,[9]; 0.099 nM,94.7%
same,normalised viability,[9]; 1 nM,86%
same,normalised viability,[10]; 0.099 nM,115%
same,normalised viability,[10]; 1 nM,108%
same,normalised viability,[11]; 0.099 nM,113%
same,normalised viability,[11]; 1 nM,127%
same,normalised viability,[12]; 0.099 nM,95.4%
same,normalised viability,[12]; 1 nM,101%
same,normalised viability,[13]; 0.099 nM,112%
same,normalised viability,[13]; 1 nM,101%
same,normalised viability,[14]; 0.099 nM,98%
same,normalised viability,[14]; 1 nM,106%
same,normalised viability,[15]; 0.099 nM,103%
same,normalised viability,[15]; 1 nM,96%
same,normalised viability,[16]; 0.099 nM,100%
same,normalised viability,[16]; 1 nM,101%
same,drug sensitivity score,[17],0
same,drug sensitivity score,[18],0
same,drug sensitivity score,[19],0
same,drug sensitivity score,[20],0
same,drug sensitivity score,[21],0
same,drug sensitivity score,[22],0
same,drug sensitivity score,[23],0
same,drug sensitivity score,[24],0
same,drug sensitivity score,[25],0
same,drug sensitivity score,[26],0
same,drug sensitivity score,[27],0
C[C@H]1C[C@@H]2[C@H]([C@@H](O)C[C@@]3(C)[C@H]2CC[C@]3(O)C(=O)CO)[C@@]2(C)C=CC(=O)C=C12 [Methylprednisolone],normalised viability,[1]; 1 nM,108%
same,normalised viability,[2]; 1 nM,93%
same,normalised viability,[3]; 1 nM,81.9%
same,normalised viability,[4]; 1 nM,105%
same,normalised viability,[5]; 1 nM,103%
same,normalised viability,[6]; 1 nM,84.6%
same,normalised viability,[7]; 1 nM,93.3%
same,normalised viability,[8]; 1 nM,114%
same,normalised viability,[9]; 1 nM,83.7%
same,normalised viability,[10]; 1 nM,97.7%
same,normalised viability,[11]; 1 nM,122%
same,normalised viability,[12]; 1 nM,103%
same,normalised viability,[13]; 1 nM,108%
same,normalised viability,[14]; 1 nM,95.4%
same,normalised viability,[15]; 1 nM,92.7%
same,normalised viability,[16]; 1 nM,92.2%
same,drug sensitivity score,[17],0
same,drug sensitivity score,[18],0
same,drug sensitivity score,[19],0
same,drug sensitivity score,[20],0
same,drug sensitivity score,[21],1.31
same,drug sensitivity score,[22],0
same,drug sensitivity score,[23],0
same,drug sensitivity score,[24],0
same,drug sensitivity score,[25],0
same,drug sensitivity score,[26],0
same,drug sensitivity score,[27],0
O=C(O)C(=O)O.[NH-][C@@H]1CCCC[C@H]1[NH-].[Pt+2] [Oxaliplatin],normalised viability,[1]; 1 nM,103%
same,normalised viability,[2]; 1 nM,89%
same,normalised viability,[3]; 1 nM,84.8%
same,normalised viability,[4]; 1 nM,109%
same,normalised viability,[5]; 1 nM,93.3%
same,normalised viability,[6]; 1 nM,86.7%
same,normalised viability,[7]; 1 nM,93%
same,normalised viability,[8]; 1 nM,93%
same,normalised viability,[9]; 1 nM,84%
same,normalised viability,[10]; 1 nM,130%
same,normalised viability,[11]; 1 nM,96.7%
same,normalised viability,[12]; 1 nM,101%
same,normalised viability,[13]; 1 nM,106%
same,normalised viability,[14]; 1 nM,100%
same,normalised viability,[15]; 1 nM,97.1%
same,normalised viability,[16]; 1 nM,91%
same,drug sensitivity score,[17],0
same,drug sensitivity score,[18],0
same,drug sensitivity score,[19],0
same,drug sensitivity score,[20],0
same,drug sensitivity score,[21],0
same,drug sensitivity score,[22],0
same,drug sensitivity score,[23],0
same,drug sensitivity score,[24],0
same,drug sensitivity score,[25],0
same,drug sensitivity score,[26],0
same,drug sensitivity score,[27],0
Nc1nc2[nH]cc(CCc3ccc(C(=O)N[C@@H](CCC(=O)O)C(=O)O)cc3)c2c(=O)[nH]1 [Pemetrexed],normalised viability,[1]; 1 nM,106%
same,normalised viability,[2]; 1 nM,101%
same,normalised viability,[3]; 1 nM,87%
same,normalised viability,[4]; 1 nM,113%
same,normalised viability,[5]; 1 nM,109%
same,normalised viability,[6]; 1 nM,89.2%
same,normalised viability,[7]; 1 nM,92.5%
same,normalised viability,[8]; 1 nM,92.6%
same,normalised viability,[9]; 1 nM,84.5%
same,normalised viability,[10]; 1 nM,107%
same,normalised viability,[11]; 1 nM,114%
same,normalised viability,[12]; 1 nM,100%
same,normalised viability,[13]; 1 nM,104%
same,normalised viability,[14]; 1 nM,101%
same,normalised viability,[15]; 1 nM,93.1%
same,normalised viability,[16]; 1 nM,98.9%
same,drug sensitivity score,[17],9.78
same,drug sensitivity score,[18],0
same,drug sensitivity score,[19],0
same,drug sensitivity score,[20],8.27
same,drug sensitivity score,[21],2.5
same,drug sensitivity score,[22],23.6
same,drug sensitivity score,[23],0
same,drug sensitivity score,[24],5.36
same,drug sensitivity score,[25],1.37
same,drug sensitivity score,[26],0
same,drug sensitivity score,[27],11
COc1cc([C@@H]2c3cc4c(cc3[C@@H](O[C@@H]3O[C@@H]5CO[C@@H](c6cccs6)O[C@H]5[C@H](O)[C@H]3O)[C@H]3COC(=O)[C@H]23)OCO4)cc(OC)c1O [Teniposide],normalised viability,[1]; 1 nM,87.9%
same,normalised viability,[2]; 1 nM,85%
same,normalised viability,[3]; 1 nM,98.2%
same,normalised viability,[4]; 1 nM,103%
same,normalised viability,[5]; 1 nM,105%
same,normalised viability,[6]; 1 nM,105%
same,normalised viability,[7]; 1 nM,98.1%
same,normalised viability,[8]; 1 nM,98.3%
same,normalised viability,[9]; 1 nM,94%
same,normalised viability,[10]; 1 nM,104%
same,normalised viability,[11]; 1 nM,127%
same,normalised viability,[12]; 1 nM,132%
same,normalised viability,[13]; 1 nM,110%
same,normalised viability,[14]; 1 nM,113%
same,normalised viability,[15]; 1 nM,92.1%
same,normalised viability,[16]; 1 nM,97.2%
same,drug sensitivity score,[17],11.7
same,drug sensitivity score,[18],16.1
same,drug sensitivity score,[19],12
same,drug sensitivity score,[20],6.71
same,drug sensitivity score,[21],4.15
same,drug sensitivity score,[22],7.63
same,drug sensitivity score,[23],0
same,drug sensitivity score,[24],16.8
same,drug sensitivity score,[25],13.5
same,drug sensitivity score,[26],7.72
same,drug sensitivity score,[27],20.3
